Measured values taken from article PMC9551276, “Design, synthesis and biological evaluation of novel orthosteric-allosteric ligands of the cannabinoid receptor type 2 (CB2R)” (Frontiers in Chemistry, 2022).

Columns and labels:
hCB2R [1] = target: T1, hCB2R (Homo sapiens, UniProt P34972); test: DiscoveRx HitHunter inhibition of FSK-stimulated cAMP accumulation; type: cell-based
Method: Inhibition of FSK-stimulated cAMP accumulation was measured using the DiscoveRx HitHunter assay.

hCB2R [2] = target: T1, hCB2R; test: DiscoveRx PathHunter βarrestin2 recruitment; type: cell-based
Method: βarrestin2 recruitment was quantified using the DiscoveRx PathHunter® assay. […] Detection solution was added to cells (DiscoveRx), and cells were incubated for 60 min at room temperature. Chemiluminescence was measured on a Cytation5 plate reader (top read, gain 200, integration time 10,000 ms).

hCB1R = target: T2, hCB1R (Homo sapiens, UniProt P21554); test: [3H]CP55,940 radioligand displacement, CHO-K1 hCB1R membranes; type: binding; conditions: % [3H]CP55,940 bound, 1 nM radioligand, 2 h
T2 construct: expressed in transfected cells; host or cells: CHO-K1 (ATCC CCL-61) stably expressing hCB1R; membranes
T2 sequence (P21554 whole entry): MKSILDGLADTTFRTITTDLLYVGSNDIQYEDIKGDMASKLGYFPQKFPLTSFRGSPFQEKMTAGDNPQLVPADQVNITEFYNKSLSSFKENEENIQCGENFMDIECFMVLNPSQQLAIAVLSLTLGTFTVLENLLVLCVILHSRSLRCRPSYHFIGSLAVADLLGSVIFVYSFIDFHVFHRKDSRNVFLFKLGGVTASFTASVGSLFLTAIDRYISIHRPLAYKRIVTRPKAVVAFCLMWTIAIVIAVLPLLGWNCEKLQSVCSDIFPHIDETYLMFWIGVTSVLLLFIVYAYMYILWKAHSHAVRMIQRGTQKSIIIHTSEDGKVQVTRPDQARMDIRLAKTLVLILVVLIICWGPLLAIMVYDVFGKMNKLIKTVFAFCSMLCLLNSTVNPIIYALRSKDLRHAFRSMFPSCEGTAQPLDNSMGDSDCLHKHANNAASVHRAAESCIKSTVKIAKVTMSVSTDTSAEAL
Method: (§1) CHO-K1 cells were thawed, diluted in Tris buffer (50 mM Tris [pH 7.4]) and homogenized in a 1 ml hand-held homogenizer. hCB1R and hCB2R CHO-K1 cell membranes were collected by cavitation in a pressure cell, and sedimented by ultracentrifugation. Pellets were resuspended in TME buffer (50 mM Tris, 5 mM MgCl2, 1 mM EDTA [pH 7.4]), and protein concentration was measured via the Bradford method according to the manufacturer’s directions (Bio-Rad Laboratories, Mississauga, ON). […] Radioligand binding began with the addition of CHO-K1 cell membranes (25 µg protein per sample). Assays were performed for 120 min at 37°C and stopped by the addition of ice-cold Tris binding buffer (pH 7.4), followed by vacuum filtration using a 24-well sampling manifold (Brandel Cell Harvester; Brandel Inc., Gaithersburg, MD, United States ). Brandel GF/B filter paper was soaked with wash buffer at 4 °C for at least 24 h. Each filter paper was washed 6 times with a 1.2 ml aliquot of Tris-binding buffer (pH 7.4), then air-dried and submerged in 5 ml of scintillation fluid (Ultima Gold XR, PerkinElmer). Liquid scintillation spectrometry was used to quantify radioactivity.

hCB2R [3] = target: T1, hCB2R; test: [3H]CP55,940 radioligand displacement, CHO-K1 hCB2R membranes; type: binding
Method: as §1, with “Assays were performed for 120 min at 37°C and stopped by the addition of ice-cold Tris binding buffer (pH 7.4), followed by vacuum filtration using a 24-well sampling manifold (Brandel Cell Harvester; Brandel Inc., Gaithersburg, MD, United States ).” left out

[4] = tested on: human microglial cells (HMC3); test: IL-6 and IL-10 release (ELISA) in LPS/TNFα-stimulated HMC3 cells; type: cell-based
Method: The concentrations of pro-inflammatory (IL-6) and anti-inflammatory (IL-10) interleukins were determined by performing specific ELISA assays (MyBioSource, San Diego, CA, United States ) on collected culture media. Human microglial cells (HMC3) were exposed to pretreatment with test compounds for 1 h followed by stimulation with LPS (10 μg/ml)/TNFα (50 ng/ml) for 24 h. In competition experiments, the CB2R antagonist (SR144528, 1 μM) or the CB2R positive allosteric modulator (EC21a 1 or 10 μM) were administered 15 min before agonist administration.

HMC3 cells = test: MTT assay, HMC3 cell viability; type: cell-based, human
Method: FIGURE 7 MTT assay performed with different concentrations of JR64a. Data represent means ± S.E.M. from n = 3 independent experiments, performed in triplicate. Statistical analysis was performed by ordinary one-way ANOVA followed by Tukey’s multiple comparison test. ^# p < 0.05 vs. control.

T1 sequence (P34972 whole entry): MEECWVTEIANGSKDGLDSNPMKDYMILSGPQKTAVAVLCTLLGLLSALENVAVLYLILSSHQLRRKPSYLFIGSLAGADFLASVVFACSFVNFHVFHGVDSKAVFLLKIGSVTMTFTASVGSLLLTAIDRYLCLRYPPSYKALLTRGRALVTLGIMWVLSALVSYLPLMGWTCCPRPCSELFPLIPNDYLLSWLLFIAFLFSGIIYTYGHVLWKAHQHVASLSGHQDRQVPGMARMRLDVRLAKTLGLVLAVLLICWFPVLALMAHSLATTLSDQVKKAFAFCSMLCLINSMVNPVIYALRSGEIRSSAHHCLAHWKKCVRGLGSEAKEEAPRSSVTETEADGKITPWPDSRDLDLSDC

SMILES: Cc1c(Br)cn(CCCCCCCn2c(=O)c(C(=O)NC3CCC(C)CC3)cc3cccnc32)c(=O)c1NC(=O)C1CCCCCC1 (stereo not drawn) [JR64a, 1-(7-(5-bromo-3-(cycloheptanecarboxamido)-4-methyl-2-oxopyridin-1(2H)-yl)heptyl)-N-(4-methylcyclohexyl)-2-oxo-1,2-dihydro-1,8-naphthyridine-3-carboxamide]
- EC50 (hCB2R [1]): 8.6 nM
- Response in inhibition of FSK-stimulated cAMP accumulation (hCB2R [1]; CHO-K1 hCB2R): modest partial agonist activity
- Inhibition of cAMP E max (% CP55,940) ± S.E.M (hCB2R [1]; CHO-K1 hCB2R, 10 µM FSK, 90 min): 38 ± 0.74 % CP55,940
- EC50 (hCB2R [2]): > 10000 nM
- βarrestin2 recruitment E max (% CP55,940) ± S.E.M (hCB2R [2]; CHO-K1 hCB2R, 90 min): 45 ± 2.4 % CP55,940
- hCB1R E min (% CP55,940) ± S.E.M (hCB1R): 104 ± 4.7 % CP55,940
- IC50 (hCB2R [3]): 0.6 nM
- hCB2R E min (% CP55,940) ± S.E.M (hCB2R [3]; % [3H]CP55,940 bound, 1 nM radioligand, 2 h): 20 ± 10.3 % CP55,940
- Anti-inflammatory properties ([4]; 10 μM, LPS/TNFα-stimulated HMC3): good anti-inflammatory properties
- Anti-inflammatory activity (IL-6 and IL-10 levels) ([4]; 10 or 25 μM, 1 h pretreatment, then LPS/TNFα 24 h): marked anti-inflammatory activity
- Anti-inflammatory activity after pretreatment with CB2R antagonist SR144528 ([4]; SR144528 1 μM 15 min before agonist, LPS/TNFα 24 h): completely abolished
- HMC3 cytotoxicity (HMC3 cells; 10 μM): no relevant HMC3 cytotoxicity
- Decrease in cell viability (HMC3 cells; 25 μM): ~10%
- Cytotoxic effects in HMC3 cells (HMC3 cells; 1 and 10 μM): no relevant cytotoxic effects
- melting point: 121 °C (dec.)
